Assay results reported in patent publication US10166217B2, “Fungal keratitis prophylactic or therapeutic agent” (SANTEN PHARMACEUTICAL CO., LTD., priority 2015, dated 2019).

Test system: C. albicans
Experiment: Test to evaluate pharmacological effect of rapamycin on animal (rabbit) model of keratomycosis
Assay type: in vivo, New Zealand white rabbit
Procedure: Test to evaluate pharmacological effect of rapamycin on animal (rabbit) model of keratomycosis
4% (w/w) rapamycin solution: This sample was prepared by dissolving rapamycin (Chunghwa Chemical Synthesis & Biotech Co., Ltd.) in a solution containing 4% (w/w) ethanol and […] polyethylene glycol 400.
About 10 μL of a C. albicans solution (1×10^4 CFU/mL to 5×10^4 CFU/mL) was administered to the central corneal stroma of the right eye of a male New Zealand white rabbit of about 3 kg, and thereby an animal (rabbit) model of keratomycosis was prepared (Cornea, Volume 26, Number 3, 336-342, April 2007).
For a base administered group (Group 1; N=4), 20 μL of a base (a solution containing 4% (w/w) ethanol and 96% (w/w) polyethylene glycol 400) was administered subconjunctivally on the day of induction.
For a rapamycin administered group (Group 2; N=4), 20 μL of a 4% (w/w) rapamycin solution (0.88 mg rapamycin) was administered subconjunctivally on the day of induction.

**Q.** Which results are given for `CO[C@H]1C[C@@H]2CC[C@@H](C)[C@@](O)(O2)C(=O)C(=O)N2CCCC[C@H]2C(=O)O[C@H]([C@H](C)C[C@@H]2CC[C@@H](O)[C@H](OC)C2)CC(=O)[C@H](C)/C=C(\C)[C@@H](O)[C@@H](OC)C(=O)[C@H](C)C[C@H](C)/C=C/C=C/C=C/1C` [rapamycin]?
**A.** clinical scores (McDonald-Shadduck scoring system, slit lamp) (20 μL of 4% (w/w) rapamycin solution (0.88 mg rapamycin), single subconjunctival administration on day of induction, right eye, post-induction days 2 and 5, compared with base administered group, N=4): lower than those of the base administered group; duration for which remarkable therapeutic effect on keratomycosis is maintained (single subconjunctival administration of an injection containing rapamycin, polyethylene glycol and ethanol, rabbit C. albicans keratomycosis model): at least 5 days
